# Where two headings read alike, the source gives them in different places. Non-standard residues stand in square brackets, D forms with d. Residues, ends and D or L forms follow the SMILES beside them.
# Key:
# [1] = tested on: Enterococcus faecalis; test: organism not typed; type: cell-based
# Experimental: (§1) The experimental strains are 37 standard strains preserved in lab and clinical isolated bacteria, including drug-resistant bacteria and quality-control bacteria selecting Staphylococcus aureus ATCC29213, Enterococcus faecalis ATCC29212, Escherichia coli ATCC25922, Pseudomonas aeruginosa ATCC27853 and klebsiella pneumoniae ATCC700603.
# (§2) (1) Sensitivity test is conducted with two-fold agar dilution method and Denlay multipoint inoculator. Test bacteria are cultured with nutrient broth and brain heart infusion.
# (§3) (2) The drug is double diluted into different concentration with MH broth after dissolved and then placed in the plate respectively.
# (§4) (4) After solidification of the culture medium in the plate, test bacteria (10^4CFU/point) are inoculated by multipoint inoculator and cultured for 18 hours at constant 35° C. Then observe the results.
# [2] = tested on: Enterococcus faecium; test: microbe, parasite or virus in culture; type: cell-based
# Experimental: as §1, §2, §3, §4
# [3] = tested on: Staphylococcus aureus; test: microbe, parasite or virus in culture; type: cell-based
# Experimental: as §1, §2, §3
# (§5) (3) After dissolved, MH agar culture medium are injected into the plate with drug quantitatively and mixed to make the final concentration of drug are 0.03, 0.06, 0.125, . . . , 128 μg/ml respectively.
# as §4
# [4] = tested on: Shigella sonnei; test: microbe, parasite or virus in culture; type: cell-based; conditions: Shigella sonnei strains 51592
# Experimental: as §1, §2, §3, §5, §4
# [5] = tested on: Proteus vulgaris; test: microbe, parasite or virus in culture; type: cell-based
# Experimental: as §1, §2, §3, §5, §4
# [6] = tested on: klebsiella pneumoniae; test: microbe, parasite or virus in culture; type: cell-based; conditions: Klebsiella pneumoniae
# Experimental: as §1, §2, §3, §5, §4
# [7] = tested on: Feilaoti citrobacter; test: microbe, parasite or virus in culture; type: cell-based
# Experimental: as §1, §2, §3, §5, §4
# [8] = tested on: Acinetobacter calcoaceticus; test: microbe, parasite or virus in culture; type: cell-based
# Experimental: as §1, §2, §3, §5, §4
# [9] = tested on: Enterobacter cloacae; test: microbe, parasite or virus in culture; type: cell-based
# Experimental: as §1, §2, §3, §5, §4
# [10] = tested on: Shigella flexneri; test: microbe, parasite or virus in culture; type: cell-based
# Experimental: as §1, §2, §3, §5, §4
# [11] = tested on: Typhoid bacillus H901; test: microbe, parasite or virus in culture; type: cell-based
# Experimental: as §1, §2, §3, §5, §4
# [12] = tested on: Serratia marcescens; test: microbe, parasite or virus in culture; type: cell-based
# Experimental: as §1, §2, §3, §5, §4
# [13] = tested on: Salmonella typhimurium; test: microbe, parasite or virus in culture; type: cell-based
# Experimental: as §1, §2, §3, §5, §4
# [14] = tested on: Enterobacter aerogenes; test: microbe, parasite or virus in culture; type: cell-based
# Experimental: as §1, §2, §3, §5, §4
# [15] = tested on: candida glabrata; test: microbe, parasite or virus in culture; type: cell-based
# How it was run: (§6)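 Broth dilution in RPMI-1640 with PL-13 peptide diluted 10-fold from stock; inoculum 1-3×10^3 CFU/ml in the test. Strains activated at 60% humidity, 25 °C for aspergillus or 37 °C for candida; living and blank control wells included.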
# [16] = tested on: aspergillus flavous; test: microbe, parasite or virus in culture; type: cell-based
# How it was run: as §6
# [17] = tested on: candida tropicalis; test: microbe, parasite or virus in culture; type: cell-based
# How it was run: as §6
# [18] = tested on: aspergillus fumigatus; test: microbe, parasite or virus in culture; type: cell-based
# How it was run: as §6
# [19] = tested on: candida albicans; test: microbe, parasite or virus in culture; type: cell-based
# How it was run: as §6
# [20] = Circular dichroism (CD) spectroscopy, helical structure; type: physicochemical; conditions: for 50% TFE % helix / Benign buffer % helix: relative to ellipticity (100%) of reference peptide in 50% TFE; for Benign buffer [θ]222: 100 mM KCl, 50 mM PO4, pH 7.0
# Experimental: The mean residue molar ellipticities of peptides are determined by circular dichroism (CD) spectroscopy, using a Jasco J-720 spectropolarimeter (Jasco, Easton, Md.), at 25° C. under benign conditions (50 mM KH2PO4/K2HPO4/100 mM KCl, pH7), as well as in the presence of an α-helix inducing solvent, 2,2,2-trifluoroethanol (TFE) (50 mM KH2PO4/K2HPO4/100 mM KCL, pH 7 buffer/50% TFE). A 10-fold dilution of a 500 μM stock solution of the peptide is loaded into a 0.02 cm fused silica cell and its mean residue molar ellipticity scanned from 190 to 250 nm. The values of mean residue molar ellipticities of the peptide at a wavelength of 222 nm are used to estimate the relative amount of α-helicity of the peptides.
# To determine the secondary structure of peptides in different environments, circular dichroism (CD) spectra of the peptide analogs are measured under physiologically related pH and ionic strength (100 mM KCl, 50 mM aq. PO4, pH 7 referred to as benign conditions) and also in 50% TFE to mimic the hydrophobic environment of the membrane. CD spectra of the peptide analogs are measured under benign conditions (100 mM KCl, 50 mM KH2PO4/K2HPO4, pH 7, referred to as KP buffer) and also in 50% trifluoroethanol (TFE) to mimic the hydrophobic environment of the membrane. […] However, in the presence of 50% TFE, all three L-peptides are fully folded α-helical structures with similar molar ellipticities and helicity.
# FIG. 2 illustrates graphical results of Circular dichroism (CD) spectra of peptides at pH 7.4 and 25° C., in 50 mM aq. PO4 containing 100 mM KCl, wherein KP buffer (50 mM KH2PO4, K2HPO4, 100 mM KCl, pH 7.4) mimics hydrophilic environment and KP buffer-TFE (1:1 [vol/vol]) mimics hydrophobic environment of cell membrane. The figure above represents the CD spectra of peptides in benign buffer without TFE, whilst the figure below represents CD spectra obtained in the presence of 50% TFE.
# [21] = 06-71 (VRE) Vancomycin-resistant Enterococci, read-out: MIC
# [22] = 08-49(MSSA) Meticillin susceptible staphylococcus aureus
# [23] = 08-52(MRSA) Methicillin-resistant staphylococcus aureus
# [24] = HH22* (AMEs) Aminoglycoside-modifying enzyme, read-out: MIC
# [25] = 06-12 (VREF) Vancomycin-resistant enterococci
# [26] = mean residue molar ellipticity at 222 nm, 25° C.
Compound,"MIC [1, 21]",MIC ([2]; Enterococcus faecium 06-1),"MIC [3, 22]","MIC [3, 23]",MIC [4],MIC [10],MIC [11],"MIC [1, 24]",Minimal inhibitory concentration [15],Minimal inhibitory concentration [16],Minimal inhibitory concentration [18],MIC [5],MIC [7],MIC [8],MIC [9],MIC [12],MIC ([13]; murium),MIC [14],50% TFE % helix [20],Benign buffer % helix [20],also measured
"C[C@H]1COc2c(N3CCN(C)CC3)c(F)cc3c(=O)c(C(=O)O)cn1c23 [Levofloxacin, levofloxacin, reference compound]",2.4 µM,2.40 µM,0.3 µM,76.9 µM,0.1 µM,0.1 µM,< 0.02 µM,,,,,,,,,,,,,,"MIC ([1]; Enterococcus faecalis, ATCC29212, Enterococcus faecalis ATCC29212): 1.2 µM; MIC ([1]; Enterococcus faecalis, HH22* (AMEs) Aminoglycoside-modifying enzyme): 1.2 µM; MIC ([1]; Enterococcus faecalis, strain 06-7 (listed under Enterococcus faecalis)): 19.2 µM; MIC ([2]; Enterococcus faecium, 06-12 (VREF) Vancomycin-resistant enterococci): 2.4 µM; MIC ([3]; Staphylococcus aureus ATCC25923): 0.3 µM; MIC ([3]; Staphylococcus aureus ATCC29213): 0.6 µM; MIC ([3]; strain 15 (listed under Staphylococcus aureus)): 0.3 µM; MIC ([5]; Proteus vulgaris 56): < 0.007 µM; MIC ([6]; 08-2 (ESBLs) (listed under klebsiella pneumoniae)): 76.9 µM; MIC ([6]; ATCC700603, klebsiella pneumoniae ATCC700603): 1.2 µM; MIC ([6]; strain 7 (listed under klebsiella pneumoniae)): < 16 µM; MIC ([7]; Feilaoti citrobacter 48001): 0.1 µM; MIC ([8]; Acinetobacter calcoaceticus, Acinetobacter calcoaceticus25001): 0.1 µM; MIC ([9]; Enterobacter cloacae 45301): 0.1 µM; MIC ([12]; Serratia marcescens 41002): 0.1 µM; MIC ([13]; Salmonella enterica, Salmonella typhimurium): < 0.02 µM; MIC ([14]; Klebsiella aerogenes, Enterobacter aerogenes 45102): < 0.02 µM"
CC(=O)N[C@H](Cc1ccccc1)C(=O)N[C@H](CCCCN)C(=O)N[C@H](CCCCN)C(=O)N[C@H](CC(C)C)C(=O)N[C@H](CCCCN)C(=O)N[C@H](CCCCN)C(=O)N[C@H](CC(C)C)C(=O)N[C@H](Cc1ccccc1)C(=O)N[C@H](CO)C(=O)N[C@H](CCCCN)C(=O)N[C@H](CC(C)C)C(=O)N[C@H](Cc1c[nH]c2ccccc12)C(=O)N[C@H](CC(N)=O)C(=O)N[C@H](Cc1c[nH]c2ccccc12)C(=O)N[C@H](CCCCN)C(N)=O [PL-18] (Ac-[dF][dK][dK][dL][dK][dK][dL][dF][dS][dK][dL][dW][dN][dW][dK]-NH2),1.3 µM,5.3 µM,,2.7 µM,0.04 µM,,0.3 µM,1.7 µM,4 µg/mL,>64 µg/mL,16 µg/mL,5.3 µM,0.3 µM,1.7 µM,0.04 µM,0.04 µM,0.3 µM,0.04 µM,80.5%,8.2%,"Minimal inhibitory concentration [17]: 2 µg/mL; Minimal inhibitory concentration [19]: 4 µg/mL; MIC [2, 25]: 5.3 µM; MIC [3]: 0.7 µM; Benign buffer [θ]222 [20, 26]: 2300 deg · cm^2 · dmol^−1"
CC(=O)N[C@H](Cc1ccccc1)C(=O)N[C@H](CCCCN)C(=O)N[C@H](CCCCN)C(=O)N[C@H](Cc1ccccc1)C(=O)N[C@H](CCCCN)C(=O)N[C@H](CCCCN)C(=O)N[C@H](CC(C)C)C(=O)N[C@H](CC(C)C)C(=O)N[C@H](CO)C(=O)N[C@H](CCCCN)C(=O)N[C@H](CC(C)C)C(=O)N[C@H](Cc1c[nH]c2ccccc12)C(=O)N[C@H](CC(N)=O)C(=O)N[C@H](Cc1c[nH]c2ccccc12)C(=O)N[C@H](CCCCN)C(N)=O [PL-43] (Ac-[dF][dK][dK][dF][dK][dK][dL][dL][dS][dK][dL][dW][dN][dW][dK]-NH2; N-terminus and C-terminus assumed),,,,,,,,,32 µg/mL,>64 µg/mL,64 µg/mL,0.3 µM,0.3 µM,0.3 µM,0.03 µM,0.3 µM,0.3 µM,0.003 µM,96.3%,14.0%,
Ac-FKKLKKLFSKLWNWK-NH2 [PL-13],1.7 µM,5.3 µM,2.7 µM,2.7 µM,0.7 µM,0.7 µM,1.3 µM,1.7 µM,,>64 µg/mL,32 µg/mL,0.3 µM,1.3 µM,.3 µM,1.3 µM,0.3 µM,1.3 µM,2.7 µM,80.7%,8.3%,"MIC ([1]; read-out: MIC): 5.3 µM; MIC ([1]; strain 06-7 (listed under Enterococcus faecalis), read-out: MIC): 1.3 µM; Minimal inhibitory concentration [19]: 8 µg/mL; MIC [2, 25]: 5.3 µM; MIC [3]: 0.7 µM; Benign buffer [θ]222 [20, 26]: −2350 deg · cm^2 · dmol^−1; 50% TFE [θ]222 ([20]; mean residue molar ellipticity at 222 nm, 25° C., buffer containing 50% TFE): −22750 deg · cm^2 · dmol^−1"
